The source of these data is patent US11873303B2, “Substituted pyrazoles as type II IRAK inhibitors” (Merck Patent GmbH, priority 2018, dated 2024).

Molecules are shown by their SMILES.

Data set [1] deals with T1, IRAK1 (human purified recombinant enzyme His-TEV-IRAK1 (194-712)) (Homo sapiens, UniProt P51617).
T1 construct: His-TEV-IRAK1 (194-712); His (N); TEV cleavage site (N)
The data set is described as follows: IRAK1 enzymatic assay (ADP-Glo luminescence). The data set is classed as biochemical. The conditions noted are these: human recombinant IRAK1, ATP 1 μM. Here is the method:
IRAK1 is a human purified recombinant enzyme (His-TEV-IRAK1 (194-712)). In this assay, IRAK1 hydrolysed ATP and autophosphorylated. Measurement of IRAK-1 inhibition was performed in 384-well format based on luminescence assay (ADP-Glo™ Kinase Assay from Promega). Purified human recombinant IRAK1 (0.3 μg/ml) and serial diluted compounds in DMSO (range of concentration from 10 μM to 0.5 nM) or controls (1% DMSO) were incubated for 15 minutes at RT in assay buffer containing 50 mM Hepes pH 7.0, Fatty acid-free BSA 0.1%, Dithiothreitol (DTT) 2 mM, MgCl2 10 mM, EGTA 0.5 mM, Triton X-100 0.01%. The kinase reaction was then initiated by the addition of ATP at a concentration of 1 μM. After 2 hours of incubation at RT, the reaction was stopped and the unconsumed ATP depleted by the addition of ADP-Glo™ Reagent according to supplier instructions. After 40 minutes of incubation at RT, the Kinase Detection Reagent was then added to the assay plate according to supplier instructions. After 20 minutes of incubation at RT, the luminescence signal was measured with a luminometer (PerkinElmer Envision or equivalent reader).

The target in data set [2] is T2, IRAK4 (human purified recombinant enzyme His-TEV-IRAK4 (1-460)) (Homo sapiens, UniProt Q9NWZ3).
T2 construct: His-TEV-IRAK4 (1-460); His (N); TEV cleavage site (N)
T2 sequence (Q9NWZ3 1-460): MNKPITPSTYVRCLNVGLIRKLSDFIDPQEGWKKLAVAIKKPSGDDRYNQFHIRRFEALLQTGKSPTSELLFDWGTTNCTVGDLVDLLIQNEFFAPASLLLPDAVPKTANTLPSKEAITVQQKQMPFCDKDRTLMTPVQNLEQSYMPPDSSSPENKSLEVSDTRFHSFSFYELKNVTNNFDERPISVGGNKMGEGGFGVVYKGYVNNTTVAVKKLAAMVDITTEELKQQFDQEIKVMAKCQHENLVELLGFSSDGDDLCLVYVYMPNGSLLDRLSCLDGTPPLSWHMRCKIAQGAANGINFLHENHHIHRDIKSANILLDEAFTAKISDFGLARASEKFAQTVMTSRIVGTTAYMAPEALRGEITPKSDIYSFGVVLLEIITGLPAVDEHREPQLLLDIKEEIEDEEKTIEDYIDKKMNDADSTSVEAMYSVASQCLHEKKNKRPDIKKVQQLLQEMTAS
Briefly: IRAK4 enzymatic assay (ADP-Glo luminescence). The data set is classed as biochemical. The conditions noted are these: human recombinant IRAK4, ATP 2 μM, STK1-biotin peptide. Here is the method:
IRAK4 is a human purified recombinant enzyme (His-TEV-IRAK4 (1-460)). In this assay, IRAK4 hydrolysed ATP, autophosphorylated and phosphorylated a Serine/Threonine generic peptidic substrate (STK: 61ST1BLC from CisBio International). Measurement of IRAK-4 inhibition was performed in 384-well format based on a luminescence assay (ADP-Glo™ Kinase Assay from Promega). Purified human recombinant IRAK4 (0.3 μg/ml) and serial diluted compounds in DMSO (range of concentration from 10 μM to 0.5 nM) or controls (1% DMSO) were incubated for 15 minutes at RT in assay buffer containing 50 mM Hepes pH 7.0, Fatty acid-free BSA 0.1%, Dithiothreitol (DTT) 2 mM, MgCl2 10 mM, EGTA 0.5 mM, Triton X-100 0.01%, MnCl2 5 mM. The kinase reaction was then initiated by the addition of ATP (2 μM) and the peptidic substrate STK1-biotin peptide (300 nM). After 2 hours of incubation at RT, the reaction was stopped and the unconsumed ATP depleted by the addition of ADP-Glo™ Reagent according to supplier instructions. After 40 minutes of incubation at RT, the Kinase Detection Reagent was then added to the assay plate according to supplier instructions. After 20 minutes of incubation at RT, the luminescence signal was measured with a plate-reading luminometer (PerkinElmer Envision or equivalent reader).

The subject of data set [3] is TLR7 induced IL-6 secretion in human mononuclear cells (PBMC's). The data set is described as follows: TLR7 induced IL-6 in human PBMC's. The data set is classed as cell-based. The conditions noted are these: TLR7 ligand 2 uM overnight, IL-6 AlphaLISA. Here is the method:
TLR7 Induced IL-6 in Human PBMC's
Human PBMC assay was used as one of the functional assays to monitor the activity of IRAK1 and IRAK4 small molecule inhibitors on TLR7 induced IL-6 secretion in human mononuclear cells (PBMC's). Human PBMCs were prepared from buffy coats (whole blood enriched with leukocytes and platelets) obtained from healthy volunteers used either fresh or frozen were plated in assay media (RPMI+2% P/S/L-glu+10% HI-FBS) and pre-treated with compounds in DMSO/media (range of concentrations from 25 uM to 0.4 nM) or controls (0.25% DMSO) for 30 minutes at 37° C. in assay media. Following pre-treatment with IRAK1 and IRAK4 inhibitors, PBMC's were stimulated with TLR7 specific ligand (2 uM) overnight (16-18 hrs) at 37° C. After incubation supernatant was transferred to 384 well PE AlphaPlate-384 and IL-6 was quantified using Perkin Elmer IL-6 Alpha LISA kit (AL223C). Plates were read on an Envision® plate reader with Alpha Technology®.

T1 sequence (P51617 194-712): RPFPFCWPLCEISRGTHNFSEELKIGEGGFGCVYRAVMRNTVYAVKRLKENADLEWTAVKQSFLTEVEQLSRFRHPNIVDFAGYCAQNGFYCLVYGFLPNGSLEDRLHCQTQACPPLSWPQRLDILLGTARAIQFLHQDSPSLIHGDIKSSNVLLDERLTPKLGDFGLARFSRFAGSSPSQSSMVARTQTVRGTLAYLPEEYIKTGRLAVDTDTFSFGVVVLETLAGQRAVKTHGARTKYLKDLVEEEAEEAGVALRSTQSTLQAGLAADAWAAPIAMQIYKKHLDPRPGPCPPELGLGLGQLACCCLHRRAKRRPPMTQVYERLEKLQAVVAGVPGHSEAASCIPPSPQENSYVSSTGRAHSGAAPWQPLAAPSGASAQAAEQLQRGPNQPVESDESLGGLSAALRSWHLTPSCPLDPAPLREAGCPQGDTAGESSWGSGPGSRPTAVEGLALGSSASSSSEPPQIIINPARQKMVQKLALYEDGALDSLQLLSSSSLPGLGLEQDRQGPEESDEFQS

Consider `CC(C)c1ccc(-n2nc(C(C)(C)C)cc2NC(=O)Nc2ccc(-c3nn(C)c4ccnc(N)c34)cc2)cc1` [Example 14, 1-[4-(4-Amino-1-methyl-1H-pyrazolo[4,3-c]pyridin-3-yl)-phenyl]-3-[5-tert-butyl-2-(4-isopropyl-phenyl)-2H-pyrazol-3-yl]-urea], for which the values for the IC50 in data set [1], in data set [2] and in data set [3] were < 100 nM, 100 to 1000 nM and < 100 nM, respectively.

`CC(C)c1ccc(-n2nc(C(C)(C)C)cc2NC(=O)Cc2ccc(-c3nn(C)c4ncnc(N)c34)cc2)cc1` [Example 15, 2-[4-(4-Amino-1-methyl-1H-pyrazolo[3,4-d]pyrimidin-3-yl)-phenyl]-N-[5-tert-butyl-2-(4-isopropyl-phenyl)-2H-pyrazol-3-yl]-acetamide]: the IC50 in data set [1] was < 100 nM; in data set [2], 1000 to 5000 nM; in data set [3], 1000 to 5000 nM.

Consider `CC(C)c1ccc(-n2nc(C(C)(C)C)cc2NC(=O)Cc2ccc(-c3nn(C)c4ncnc(N)c34)cc2F)cc1` [Example 16, 2-[4-(4-Amino-1-methyl-1H-pyrazolo[3,4-d]pyrimidin-3-yl)-2-fluoro-phenyl]-N-[5-tert-butyl-2-(4-isopropyl-phenyl)-2H-pyrazol-3-yl]-acetamide], for which the half-inhibitory concentration (IC50) in data set [1] is < 100 nM; in data set [2] it was 100 to 1000 nM; in data set [3] it was 1000 to 5000 nM.

For `Cc1ccc(-n2nc(C(C)(C)CO)cc2NC(=O)Nc2ccc(-c3nn(C)c4ncnc(N)c34)cc2Cl)cc1` [Example 17, 1-(4-{4-amino-1-methyl-1H-pyrazolo[3,4-d]pyrimidin-3-yl}-2-chlorophenyl)-3-[3-(1-hydroxy-2-methylpropan-2-yl)-1-(4-methylphenyl)-1H-pyrazol-5-yl]urea], the melting point was in the range of 192 to 194 °C. Moreover, the IC50 in data set [1] was < 100 nM. For the same compound, the IC50 in data set [2] is 1000 to 5000 nM. Further, the IC50 in data set [3] is < 100 nM.

For `Cc1ccc(-n2nc(C3(C)COC3)cc2NC(=O)Nc2ccc(-c3nn(C)c4ncnc(N)c34)cc2Cl)cc1` [Example 18, 1-(4-{4-amino-1-methyl-1H-pyrazolo[3,4-d]pyrimidin-3-yl}-2-chlorophenyl)-3-[3-(3-methyloxetan-3-yl)-1-(4-methylphenyl)-1H-pyrazol-5-yl]urea], the melting point fell in the range of 170 to 172 °C. The half-maximal inhibitory concentration (IC50) in data set [1] is < 100 nM. In data set [2], the IC50 is 1000 to 5000 nM. This compound also registered an IC50 in data set [3] of 100 to 1000 nM.

On to `Cc1ccc(-n2nc(C(C)(C)C)cc2NC(=O)C(O)c2ccc(-c3nn(C)c4ncnc(N)c34)cc2)cc1` (centres unmarked) [Example 19, 2-[4-(4-Amino-1-methyl-1H-pyrazolo[3,4-d]pyrimidin-3-yl)-phenyl]-N-(5-tert-butyl-2-p-tolyl-2H-pyrazol-3-yl)-2-hydroxy-acetamide], for which the figures for the 50% inhibitory concentration (IC50) in data set [1], in data set [2] and in data set [3] were < 100 nM, 100 to 1000 nM and 100 to 1000 nM, respectively.

For `Cc1ccc(-n2nc(C(C)(C)C)cc2NC(=O)C(=O)c2ccc(-c3nn(C)c4ncnc(N)c34)cc2)cc1` [Example 20, 2-[4-(4-Amino-1-methyl-1H-pyrazolo[3,4-d]pyrimidin-3-yl)-phenyl]-N-(5-tert-butyl-2-p-tolyl-2H-pyrazol-3-yl)-2-oxo-acetamide], the concentration for half-maximal inhibition (IC50) is < 100 nM in data set [1], < 100 nM in data set [2] and 1000 to 5000 nM in data set [3].

Take `Cc1ccc(-n2nc(C(C)(C)CO)cc2NC(=O)Nc2ccc(-c3csc4ncnc(N)c34)cc2Cl)cc1` [Example 21, 1-(4-{4-aminothieno[2,3-d]pyrimidin-5-yl}-2-chlorophenyl)-3-[3-(1-hydroxy-2-methylpropan-2-yl)-1-(4-methylphenyl)-1H-pyrazol-5-yl]urea]: the IC50 is 100 to 1000 nM in data set [1], > 5000 nM in data set [2] and > 5000 nM in data set [3].

Turning to `Cc1ccc(-n2nc(C(C)(C)C#N)cc2NC(=O)Nc2ccc(-c3csc4ncnc(N)c34)cc2Cl)cc1` [Example 22, 1-[4-(4-Amino-thieno[2,3-d]pyrimidin-5-yl)-2-chloro-phenyl]-3-[5-(cyano-dimethyl-methyl)-2-p-tolyl-2H-pyrazol-3-yl]-urea], the half-maximal inhibitory concentration (IC50) in data set [1] is 100 to 1000 nM; in data set [2], 1000 to 5000 nM; in data set [3], > 5000 nM.

Take `Cc1ccc(-n2nc(C(C)(C)C)cc2NC(=O)Nc2ccc(-c3csc4ncnc(N)c34)c(F)c2Cl)cc1` [Example 23, 1-[4-(4-Amino-thieno[2,3-d]pyrimidin-5-yl)-2-chloro-3-fluoro-phenyl]-3-(5-tert-butyl-2-p-tolyl-2H-pyrazol-3-yl)-urea]: the IC50 in data set [1] was < 100 nM; in data set [2], 1000 to 5000 nM; in data set [3] it was < 100 nM.

Turning to `Cc1ccc(-n2nc(C(C)(C)C(F)(F)F)cc2NC(=O)Nc2ccc(-c3csc4ncnc(N)c34)cc2Cl)cc1` [Example 24, 1-[4-(4-Amino-thieno[2,3-d]pyrimidin-5-yl)-2-chloro-phenyl]-3-[2-p-tolyl-5-(2,2,2-trifluoro-1,1-dimethyl-ethyl)-2H-pyrazol-3-yl]-urea], the IC50 in data set [1] was < 100 nM; in data set [2], 100 to 1000 nM; in data set [3] it was < 100 nM.

On to `Cc1ccc(-n2nc(C(C)(C)C)cc2NC(=O)Nc2ccc(-c3nn(C)c4ccnc(N)c34)cc2F)cc1` [Example 26, 1-[4-(4-Amino-1-methyl-1H-pyrazolo[4,3-c]pyridin-3-yl)-2-fluoro-phenyl]-3-(5-tert-butyl-2-p-tolyl-2H-pyrazol-3-yl)-urea], for which the IC50 in data set [1] is < 100 nM; in data set [2], 100 to 1000 nM; in data set [3], < 100 nM.

As to `Cc1ccc(-n2nc(C(C)(C)C)cc2NC(=O)N[C@H]2CC[C@@H](c3cn(C)c4ncnc(N)c43)CC2)cc1` [Example 27, 3-[3-tert-butyl-1-(4-methylphenyl)-1H-pyrazol-5-yl]-1-[(1s,4s)-4-{4-amino-7-methyl-7H-pyrrolo[2,3-d]pyrimidin-5-yl}cyclohexyl]urea], the melting point was 228 to 230 °C. In data set [1], the IC50 lay in the range of 100 to 1000 nM. For the same compound, the IC50 in data set [2] was 1000 to 5000 nM.
